From patent publication US6613757B1, “COMBINATION OF PROSTACYCLIN WITH AN ESTROGEN OR PROGESTIN FOR THE PREVENTION AND TREATMENT OF ATHEROSCLEROTIC VASCULAR DISEASE INCLUDING PREECLAMPSIA AND FOR THE TREATMENT OF HYPERTENSION, AND FOR HORMONE REPLACEMENT THERAPY” (Board of Regents, The University of Texas System, priority 1994, dated 2003)
Entries after “also recorded” stand apart in the source; their conditions may differ.

Assays:
pregnant guinea pigs = test: Inhibition of nitric oxide synthesis during pregnancy in guinea pigs; assay type: in vivo, guinea pig; conditions: unreported studies
Excerpt: There is also evidence that prostacyclin production is decreased in preeclampsia. In a normal pregnancy there is an approximately 5-10-fold increase in prostacyclin production compared to the non-pregnant state (Goodman 1982, Walsh 1985, Fitzgerald 1,987). In contrast, there is a decreased production of prostacyclin in maternal, placental and umbilical cord vessels and in placental cotyledons (Remuzzi 1980, […] 1984, Walsh 1985) in preeclampsia. An imbalance in the ratio of thromboxane A2 to prostacyclin in preeclampsia has been proposed as a major pathological mechanism in preeclampsia (Walsh 1988, Fitzgerald 1987, Friedman 1988). Other experimental studies (unreported) in pregnant rats and guinea pigs indicate that nitric oxide deficiency is the primary event in preeclampsia.

[1] = system: preeclamptic rats (L-NAME); test: Blood pressure in L-NAME-induced preeclampsia model, pregnant and postpartum rats; assay type: in vivo, rat; conditions: for post-partum increase in blood pressure: R 5020 5 mg/animal/day; for blood pressure in the postpartum period: preeclamptic rats, L-NAME 25 mg/animal/day s.c. infusion plus cicaprost
Method: These symptoms are related to the decrease in vascular resistance and placental perfusion. […] Preeclampsia was induced with an nitric oxide inhibitor L-NAME (25 mg/animal/day, s.c. infusion).

L-NAME-treated male rats = test: L-NAME-induced hypertension in male rats; assay type: in vivo, rat
Method: (§1) FIG. 2 provides further evidence that progesterone can induce mechanisms which compensate the L-NAME-produced hypertension. This study was performed in male rats, showing pregnancy is not essential for this effect.

cholesterol-fed rabbits = conditions: cited from earlier work
[2] = in vivo; cited from earlier work
[3] = system: preeclamptic rats (L-NAME); test: Fetal weight and fetal mortality in L-NAME-treated pregnant rats; assay type: in vivo, rat; conditions: iloprost plus L-NAME vs L-NAME-treated group
Excerpt: The unexpected results of the studies described below indicate that the response of blood vessels to prostacyclins and subsequent blood pressure lowering effect is controlled by progesterone. […] These symptoms are related to the decrease in vascular resistance and placental perfusion. […] Thus, the condition of pregnancy and the progestin treatment highly increase the responsiveness of blood vessels to exogenous prostacyclin. The increased response of blood vessels results in the lowering of the effective dose of prostacyclin analogs and subsequently in the reduction of side effects.
as §1

[4] = intravenous use; cited from earlier work
[5] = system: microvascular arteriolar endothelium; conditions: cited from earlier work
[6] = system: cases of severe early-onset fetal growth retardation; conditions: 2 cases, intravenous, 4 ng/kg/min; cited from earlier work
humans = conditions: infusion; cited from earlier work
sheep = conditions: infusion; cited from earlier work
[7] = system: women with severe preeclampsia; conditions: cited from earlier work
placental blood vessels = conditions: in vitro; cited from earlier work

Structure (SMILES): COC(=O)[C@@H](N)CCCNC(=N)N[N+](=O)[O-] [L-NAME]
- classical symptoms hypertension, proteinuria and fetal growth retardation (pregnant guinea pigs): caused the classical symptoms hypertension, proteinuria and fetal growth retardation
- signs and symptoms of preeclampsia (hypertension, proteinuria, fetal growth retardation) ([1]; pregnant rats): caused the classical symptoms hypertension, proteinuria and fetal growth retardation; also recorded: produces signs and symptoms of preeclampsia

Structure (SMILES): CCC(=O)[C@@]1(C)CC[C@H]2[C@@H]3CCC4=CC(=O)CCC4=C3CC[C@@]21C [R 5020, promegestone]
- L-NAME-induced hypertension (L-NAME-treated male rats; male rats, 0.5 mg/animal/day s.c., FIG. 2): reduces the L-NAME-induced hypertension
- post-partum increase in blood pressure ([1]; iloprost plus L-NAME, FIG. 4): dramatically decrease the post-partum increase in blood pressure
- post-partum increase in blood pressure ([1]; iloprost plus L-NAME, FIG. 4, listed as R5020): restores the efficacy of iloprost/cicaprost to lower blood pressure
- blood pressure in the postpartum period ([1]; FIG. 1): lowers blood pressure; also recorded: restores the postpartum decrease in the efficacy of cicaprost to lower blood pressure
- blood pressure in the postpartum period ([1]; FIG. 1, listed as R5020): restores the efficacy of iloprost/cicaprost to lower blood pressure

Structure (SMILES): CCC#CC[C@H](C)[C@H](O)C#C[C@@H]1[C@H]2C/C(=C/COCC(=O)O)C[C@H]2C[C@H]1O [cicaprost]
- aortic atheromatous plaque formation (cholesterol-fed rabbits; oral, cholesterol-fed rabbits): reduced aortic atheromatous plaque formation
- hypercholesterolemia-induced impairment of endothelium-dependent relaxation (cholesterol-fed rabbits; oral, cholesterol-fed rabbits): partially prevented hypercholesterolemia-induced impairment of endothelium-dependent relaxation
- hypercholesterolemia-induced impairment of coronary vasodilatation (cholesterol-fed rabbits; oral, rabbits): beneficial effect on the hypercholesterolemia-induced impairment of coronary vasodilatation
- hypercholesterolemia-induced platelet and neutrophil hyperactivity (cholesterol-fed rabbits; rabbits): reduced hypercholesterolemia-induced platelet and neutrophil hyperactivity
- blood pressure during pregnancy (prepartum) ([1]; cicaprost plus L-NAME, progesterone levels high, FIG. 1): greater in late pregnancy; also recorded: a fall in blood pressure
- blood pressure postpartum ([1]; cicaprost plus L-NAME, progesterone levels low, FIG. 1): rapid increase in blood pressure; also recorded: an increase
- bioavailability [2]: high bioavailability
- duration of action [2]: prolonged duration of action

Structure (SMILES): CC#CCC(C)[C@H](O)/C=C/[C@@H]1[C@H]2C/C(=C/CCCC(=O)O)C[C@H]2C[C@H]1O (stereo partly shown) [iloprost]
- L-NAME-induced fetal mortality ([3]; FIG. 5 lower panel): reduces the L-NAME-induced fetal mortality; also recorded: fetal mortality decreased
- L-NAME-induced fetal growth retardation (fetal weight) ([3]; FIG. 5 upper panel): partially reverses the L-NAME-induced fetal growth retardation; also recorded: fetal weight increased
- systemic blood pressure [4]: marked fall in systemic blood pressure
- damage of microvascular arteriolar endothelium by cyclosporin [5]: protect microvascular arteriolar endothelium from damage by cyclosporin
- L-NAME-induced hypertension during pregnancy ([1]; iloprost plus L-NAME, progesterone levels high, FIG. 4): greater in late pregnancy; also recorded: fully reverses the L-NAME-induced hypertension

Structure (SMILES): CC(=O)[C@H]1CC[C@H]2[C@@H]3CCC4=CC(=O)CC[C@]4(C)[C@H]3CC[C@]12C [progesterone]
- blood pressure (L-NAME-treated male rats; L-NAME-treated male rats): partially lowers blood pressure

Structure (SMILES): CCCCC[C@H](O)/C=C/[C@@H]1[C@H]2C/C(=C/CCCC(=O)O)O[C@H]2C[C@H]1O [prostacyclin]
- outcome of attempt to promote fetal growth [6]: intrauterine death in each case
- placental perfusion (humans): did not result in the increase in placental perfusion
- systemic blood pressure [4]: marked fall in systemic blood pressure
- placental perfusion (sheep): did not result in the increase in placental perfusion; also recorded: a decrease of placental perfusion
- babies survived ([7]; 7 women, 4-8 ng/kg/min i.v.): 4/7
- fetal effects during treatment ([7]; 7 women, 4-8 ng/kg/min i.v.): Fetal bradycardia was observed; also recorded: two fetuses died during prostacyclin infusion
- blood pressure during prostacyclin infusion ([7]; 7 women, 4-8 ng/kg/min, 5 h to 11 days): rapid decrease in blood pressure
- uteroplacental blood flow ([7]; steal phenomenon): decreased uteroplacental blood flow
- relaxation of placental blood vessels (placental blood vessels): consistently relaxes placental blood vessels
- duration of action [2]: short duration of action
